The source of these data is patent US20260297542A1, “HERBICIDE RESISTANT PLANTS” (SYNGENTA CROP PROTECTION AG, priority 2023, published 2026).

Broadly, the inhibition is the share of the control response that was lost under treatment.

Experiment in all cases: E. coli hemG growth inhibition by herbicide, AtPPO1 variant
Format in all cases: cell-based
Common to all, as to details: read-out: percentage growth inhibition

In one test the target is T1, AtPPO1 G510N (Arabidopsis thaliana, UniProt P55826, G510N).
T1 construct: expressed in transfected cells; host or cells: E. coli BL21(DE3) hemG, pET24a plasmid
T1 sequence (P55826 35-537 G510N): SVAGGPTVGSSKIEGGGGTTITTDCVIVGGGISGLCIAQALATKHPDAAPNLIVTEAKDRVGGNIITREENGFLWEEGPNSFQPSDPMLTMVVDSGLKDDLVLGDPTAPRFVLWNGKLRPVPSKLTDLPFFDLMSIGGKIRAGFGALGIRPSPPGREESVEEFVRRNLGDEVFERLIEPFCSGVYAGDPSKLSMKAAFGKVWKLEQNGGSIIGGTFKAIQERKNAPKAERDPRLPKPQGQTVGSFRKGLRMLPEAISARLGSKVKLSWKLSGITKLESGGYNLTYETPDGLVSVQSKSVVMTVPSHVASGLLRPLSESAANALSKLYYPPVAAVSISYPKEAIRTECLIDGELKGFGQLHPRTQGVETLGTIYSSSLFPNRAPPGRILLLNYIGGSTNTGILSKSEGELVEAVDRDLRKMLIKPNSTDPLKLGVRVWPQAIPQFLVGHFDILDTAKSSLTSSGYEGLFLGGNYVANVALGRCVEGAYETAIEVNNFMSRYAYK
A digest of the protocol:
(§1)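 Variant plasmids were transformed into hemG-null BL21(DE3) and precultured 24 h with hematin. Washed cells were diluted 1:100 into Terrific broth containing 0.1 mM IPTG and herbicide (6.25 ppm 0 or E; 0.78 ppm B) or DMSO. After 24 h at 37° C, OD600 gave percent inhibition.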

The target in a further test is T2, AtPPO1 L360C (Arabidopsis thaliana, UniProt P55826, L360C).
T2 construct: expressed in transfected cells; host or cells: E. coli BL21(DE3) hemG (pET24a, T7 promoter)
T2 sequence (P55826 35-537 L360C): T1 sequence (P55826 35-537 G510N) with L326C, N476G
A digest of the protocol:
as §1

The target in the next test is T3, AtPPO1 L424V (Arabidopsis thaliana, UniProt P55826, L424V).
T3 construct: expressed in transfected cells; host or cells: E. coli BL21(DE3) hemG (pET24a, T7 promoter)
T3 sequence (P55826 35-537 L424V): T1 sequence (P55826 35-537 G510N) with L390V, N476G
The essentials:
as §1

The next test concerns the target T4, AtPPO1 P154Y (Arabidopsis thaliana, UniProt P55826, P154Y).
T4 construct: expressed in transfected cells; host or cells: E. coli BL21(DE3) hemG (hemG replaced by CmR), pET24a plasmid
T4 sequence (P55826 35-537 P154Y): T1 sequence (P55826 35-537 G510N) with P120Y, N476G
The essentials: as §1

Molecules are shown by their SMILES. Substitutions are numbered along the chain they refer to.

For `C#CCN1C(=O)C(F)(F)Oc2cc(F)c(-n3c(=O)n(C)c(=S)n(C)c3=O)cc21` [Herbicide B, trifludimoxazin], the inhibition at 0.78 ppm on AtPPO1 G510N is 24%; at AtPPO1 L360C, 25%; on AtPPO1 L424V, 19%; on AtPPO1 P154Y, 34%.

For `CCOC(=O)[C@]1(C)CC(c2cc(-n3c(=O)n(C)c(=S)n(C)c3=O)c(F)cc2Cl)=NO1` [Herbicide D, ethyl (5S)-3-[2-chloro-5-(3,5-dimethyl-2,6-dioxo-4-thioxo-1,3,5-triazinan-1-yl)-4-fluoro-phenyl]-5-methyl-4H-isoxazole-5-carboxylate], the inhibition at 6.25 ppm was found to be 31% at AtPPO1 G510N, 21% at AtPPO1 L360C, 33% on AtPPO1 L424V and 38% on AtPPO1 P154Y.

Regarding `CC(C)N(C)S(=O)(=O)NC(=O)c1cc(-n2c(=O)cc(C(F)(F)F)n(C)c2=O)c(F)cc1Cl` [Herbicide E, saflufenacil], the inhibition at 6.25 ppm stood at 70% at AtPPO1 G510N, 33% on AtPPO1 L360C, 66% on AtPPO1 L424V and 68% on AtPPO1 P154Y.
